Molecular target: T1, OR67d/ORCO (Drosophila melanogaster, UniProt Q9VT92)
T1 construct: endogenous receptor in OR67d olfactory neurons in vivo (wild type, or snmp1 null rescued with transgenic SNMP1); with Odorant receptor coreceptor; Sensory neuron membrane protein 1
Assay: single sensillum electrophysiology in flies
Assay type: cell-based
Conditions: v/v dilutions in paraffin oil, airstream

T1 sequence (Q9VT92 whole entry): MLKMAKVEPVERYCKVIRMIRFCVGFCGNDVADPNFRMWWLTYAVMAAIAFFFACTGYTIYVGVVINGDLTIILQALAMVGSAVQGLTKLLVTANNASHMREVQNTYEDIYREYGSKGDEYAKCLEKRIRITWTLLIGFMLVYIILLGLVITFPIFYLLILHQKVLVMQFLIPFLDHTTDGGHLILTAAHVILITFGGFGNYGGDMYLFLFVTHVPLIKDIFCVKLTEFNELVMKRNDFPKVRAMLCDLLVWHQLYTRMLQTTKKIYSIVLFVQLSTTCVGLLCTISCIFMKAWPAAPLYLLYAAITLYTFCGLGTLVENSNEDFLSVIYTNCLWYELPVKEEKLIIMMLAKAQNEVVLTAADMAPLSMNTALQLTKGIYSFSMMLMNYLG
T1 sequence (Q9VNB5 whole entry partner): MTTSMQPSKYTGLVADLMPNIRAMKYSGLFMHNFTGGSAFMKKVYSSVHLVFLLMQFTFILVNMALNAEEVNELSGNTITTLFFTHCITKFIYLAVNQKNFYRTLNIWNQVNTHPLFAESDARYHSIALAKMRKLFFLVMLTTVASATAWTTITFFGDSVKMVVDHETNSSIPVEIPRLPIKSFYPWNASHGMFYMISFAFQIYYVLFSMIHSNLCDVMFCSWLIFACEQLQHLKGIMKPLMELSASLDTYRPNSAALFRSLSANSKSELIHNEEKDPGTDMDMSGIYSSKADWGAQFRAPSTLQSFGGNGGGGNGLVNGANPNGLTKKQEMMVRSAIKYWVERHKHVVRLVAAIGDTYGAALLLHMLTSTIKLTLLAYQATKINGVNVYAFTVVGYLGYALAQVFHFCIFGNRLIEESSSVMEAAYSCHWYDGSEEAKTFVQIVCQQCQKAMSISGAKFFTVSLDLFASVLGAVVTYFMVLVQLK
T1 sequence (Q9VDD3 whole entry partner): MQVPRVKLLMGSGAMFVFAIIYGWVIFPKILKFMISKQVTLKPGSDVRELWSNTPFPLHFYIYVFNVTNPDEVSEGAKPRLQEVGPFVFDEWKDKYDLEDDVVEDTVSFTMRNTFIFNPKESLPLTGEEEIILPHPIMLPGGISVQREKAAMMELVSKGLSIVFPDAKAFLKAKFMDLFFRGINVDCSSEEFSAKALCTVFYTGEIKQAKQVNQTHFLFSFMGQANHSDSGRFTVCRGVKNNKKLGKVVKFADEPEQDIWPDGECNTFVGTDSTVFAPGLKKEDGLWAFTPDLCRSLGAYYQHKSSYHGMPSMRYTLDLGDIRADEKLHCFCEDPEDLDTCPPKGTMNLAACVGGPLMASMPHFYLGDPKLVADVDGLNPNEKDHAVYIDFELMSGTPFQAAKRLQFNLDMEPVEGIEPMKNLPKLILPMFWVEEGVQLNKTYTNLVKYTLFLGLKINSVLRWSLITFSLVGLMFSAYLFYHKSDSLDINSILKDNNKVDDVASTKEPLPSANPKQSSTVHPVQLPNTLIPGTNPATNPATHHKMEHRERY

CCCCCC/C=C\CCCCCCCCCCOC(C)=O [cVA, (Z)-11-octadecenyl acetate] was tested, and the spikes/s was “Concentration–response curves of OR67d neurons to cVA in the indicated rescue genotypes”.
